± gives the expanded uncertainty stated by the source.
Assays:
[1] = refractive index (Na D-line) (dimensionless); conditions: 298.2 K; 101.33 kPa; Liquid; Standard Abbe refractometry
[2] = 298.2 K; 101.33 kPa; Liquid; Pycnometric method

| refractive index [1] | mass density [2] [kg/m3] | Compound |
| --- | --- | --- |
| 1.48 ± 0.001 | 1170 ± 10 | CCCCn1cc[n+](C)c1.COCCOCCOS(=O)(=O)[O-] [1-butyl-3-methylimidazolium 2-(2-methoxyethoxy)ethyl sulfate] |
| 1.41 ± 0.001 | 1380 ± 10 | CCCCn1cc[n+](C)c1.F[P-](F)(F)(F)(F)F [1-butyl-3-methylimidazolium hexafluorophosphate] |
| 1.422 ± 0.001 | 1200 ± 10 | CCCCn1cc[n+](C)c1.F[B-](F)(F)F [1-butyl-3-methylimidazolium tetrafluoroborate] |
| 1.538 ± 0.001 | 1210 ± 10 | CCn1cc[n+](C)c1.Cc1ccc(S(=O)(=O)[O-])cc1 [1-ethyl-3-methylimidazolium 4-methylbenzenesulfonate] |
| 1.5225 ± 0.0008 | 1010 ± 2 | CC(O)c1ccccc1 (stereo unspecified) [1-phenylethanol] |
| 1.4865 ± 0.0008 | 1007 ± 2 | CCC(=O)OC(C)c1ccccc1 (stereo unspecified) [1-phenylethyl propionate] |
| 1.382 ± 0.001 | 992 ± 1 | CCC(=O)O [propanoic acid] |
| 1.402 ± 0.001 | 919 ± 2 | C=COC(=O)CC [vinyl propanoate] |

From the NIST ThermoML archive (doi:10.1016/j.fluid.2007.10.011)
